Square brackets hold non-standard residues; d marks the D form. Peptide text beside a SMILES is read from it. * marks the point of attachment. Cbz = O=C(OCc1ccccc1)*; Bn = c1ccc(C*)cc1
Target: T1, rat brain farnesyl protein transferase (PFT) (Rattus norvegicus, UniProt Q02293+Q04631)
T1 construct: 40-fold purified rat brain farnesyl protein transferase; from tissue; host or cells: rat brain
Assay: PFT inhibitory activity assay (radiolabeled farnesyl pyrophosphate, biotinyl peptide, streptavidin beads)
Format: biochemical
Conditions: 40-fold purified rat brain enzyme; 0.12 μM [3H]FPP, 0.1 μM biotinyl-Ahe-Tyr-Lys-Cys-Val-Ile-Met; 37° C., 30 minutes; read-out: IC50 (μM) against PFT
Description: The PFT inhibitory activity of compounds of Formula I was assayed in 30 mM potassium phosphate buffer, pH 7.4, containing 7 mM DTT, 1.2 mM MgCl2, 0.1 mM leupeptin, 0.1 mM pepstatin and 0.2 mM phenylmethylsulfonyl fluoride. Assays were performed in 96 well plates (Wallec) and employed solutions composed of varying concentrations of a compound of Formula I in 100% DMSO. Upon addition of both substrates, radiolabeled farnesyl pyrophosphate ([1-^3 H], specific activity 15--30 Ci/mmol, final concentration 0.12 μM) and (biotinyl)-Ahe-Tyr-Lys-Cys-Val-Ile-Met peptide (final concentration 0.1 μM), the enzyme reaction was started by addition of 40-fold purified rat brain farnesyl protein transferase. After incubation at 37° C. for 30 minutes, the reaction was terminated by diluting the reaction 2.5-fold with a stop buffer containing 1.5M magnesium acetate, 0.2M H3 PO4, 0.5% BSA, and strepavidin beads (Amersham) at a concentration of 1.3 mg/mL. After allowing the plate to settle for 30 minutes at room temperature, radioactivity was quantitated on a microBeta counter (model 1450, Wallec). Compounds of Formula I show IC50 values of 0.5 nM to 80 μM (see data table) in this assay and are thus valuable inhibitors of protein: farnesyl transferase enzyme which may be used in the medical treatment of tissue proliferative diseases, including cancer and restenosis.

T1 sequence (Q02293 whole entry, one chain of several): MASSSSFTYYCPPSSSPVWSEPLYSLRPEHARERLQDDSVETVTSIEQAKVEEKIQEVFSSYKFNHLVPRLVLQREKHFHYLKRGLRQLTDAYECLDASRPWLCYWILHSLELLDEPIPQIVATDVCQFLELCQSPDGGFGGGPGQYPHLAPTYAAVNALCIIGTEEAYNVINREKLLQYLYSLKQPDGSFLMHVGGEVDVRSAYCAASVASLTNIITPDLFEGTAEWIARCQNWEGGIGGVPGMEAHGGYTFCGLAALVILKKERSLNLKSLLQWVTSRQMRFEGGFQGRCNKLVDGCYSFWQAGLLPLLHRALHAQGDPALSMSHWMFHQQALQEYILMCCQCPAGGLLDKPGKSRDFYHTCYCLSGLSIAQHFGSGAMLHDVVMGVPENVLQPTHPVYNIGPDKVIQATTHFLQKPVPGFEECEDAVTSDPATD

Compound	IC50
COC(=O)[C@H](COCc1ccccc1)NC(=O)C(C)(Cc1ccc(OCc2ccccc2)cc1)NC(=O)[C@H](Cc1c[nH]cn1)NC(=O)OCc1ccccc1 (mixture of isomers) [Example 10, N-[α-Methyl-N-[N-[(phenylmethoxy)carbonyl]-L-histidyl]-O-(phenylmethyl)-DL-tyrosyl]-O-(phenylmethyl)-L-serine. methyl ester]	0.1 µM
CCOc1ccc(NC(=O)N[C@@H](Cc2cnc[nH]2)C(=O)N[C@H](Cc2ccc(OCc3ccccc3)cc2)C(=O)NCCCOc2ccccc2)cc1 (stereo in doubt) [Example 25, (S,R)-N-[2-(4-Benzyloxy-phenyl)-1-(3-phenoxy-propylcarbamoyl)-ethyl]-2-[3-(4-ethoxy-phenyl)-ureido]-3-(3H-imidazol-4-yl)-propionamide]	3.7 µM
Cc1ccc(S(=O)(=O)N[C@@H](Cc2cnc[nH]2)C(=O)N[C@H](Cc2ccc(OCc3ccccc3)cc2)C(=O)N2CCN(Cc3ccccc3)CC2)cc1 (stereo in doubt) [Example 28, (S,R)-N-[1-(4-Benzyloxy-benzyl)-2-(4-benzyl-piperazin-1-yl)-2-oxo-ethyl]-3-(3H-imidazol-4-yl)-2-(toluene-4-sulfonylamino)-propionamide]	11 µM
O=C(Nc1ccccc1)NC(Cc1c[nH]cn1)C(=O)NC(Cc1ccc(OCc2ccccc2)cc1)C(=O)NCCCOc1ccccc1 [5 (3), PhNHCO--D--His--Tyr(OBn)--CONHCH2 CH2 CH2 OPh]	2.1 µM
CCCCNC(=O)NC(Cc1cnc[nH]1)C(=O)NC(Cc1ccc(OCc2ccccc2)cc1)C(=O)NCCCCc1ccccc1 [5 (4), BuNHCO--D--His--Tyr(OBn)--CONH(CH2)4 Ph]	7.3 µM
O=C(N[C@H](Cc1c[nH]cn1)C(=O)N[C@@H](Cc1ccc(OCc2ccccc2)cc1)C(=O)NCCCOc1ccccc1)OCc1ccccc1 [5 (23), BnOCO--D--His--Tyr(OBn)CONHCH2 CH2 CH2 OPh]	0.64 µM
COC(=O)C(CCSC)NC(=O)C(Cc1ccc(OCc2ccccc2)cc1)NC(=O)C(Cc1cnc[nH]1)NC(=O)NCCc1ccccc1 [5 (28), PhCH2 CH2 NHCO--D--His--Tyr(OBn)CONH--Met--CO2 Me]	0.73 µM
O=C(Cc1ccccc1)N[C@H](Cc1c[nH]cn1)C(=O)N[C@@H](Cc1ccc(OCc2ccccc2)cc1)C(=O)N1CCN(Cc2ccccc2)CC1 [5 (30), PhCH2 CO--D--His--Tyr(OBn)CO(4-Bn-piperazin-1-yl)]	73 µM
O=C(N[C@H](Cc1cnc[nH]1)C(=O)N[C@@H](Cc1ccc(OCc2ccccc2)cc1)C(=O)NCCc1ccccc1)N[C@@H]1C[C@H]1c1ccccc1 [5 (31), (t-2-Ph-c-propyl)-NHCO--D--His--Tyr(OBn)CONHCH2 CH2 Ph]	0.76 µM
O=C(NC1CCCCC1)N[C@H](Cc1c[nH]cn1)C(=O)N[C@@H](Cc1ccc(OCc2ccccc2)cc1)C(=O)NCc1ccccc1 [5 (35), c-hexyl-NHCO--D--His--Tyr(OBn)CONHCH2 Ph]	66 µM
O=C(CCc1ccccc1)N[C@H](Cc1c[nH]cn1)C(=O)N[C@@H](Cc1ccc(OCc2ccccc2)cc1)C(=O)NCCOCc1ccccc1 [5 (36), PhCH2 CH2 CO--D--His--Tyr(OBn)CONHCH2 CH2 OBn]	1.9 µM
CC(C)NC(=O)NC(Cc1cnc[nH]1)C(=O)NC(Cc1ccc(OCc2ccccc2)cc1)C(=O)NCc1ccccc1 [5 (40), (CH3)2 CHNHCO--D--His--Tyr(OBn)CONHCH2 Ph]	0.75 µM
O=C(Nc1ccc(Oc2ccccc2)cc1)NC(Cc1c[nH]cn1)C(=O)NC(Cc1ccc(OCc2ccccc2)cc1)C(=O)NCCc1ccccc1 [5 (46), (4-PhOPh)NHCO--D--His--Tyr(OBn)--CONHCH2 CH2 Ph]	1 µM
COc1ccccc1CCCNC(=O)[C@H](Cc1ccc(OCc2ccccc2)cc1)NC(=O)[C@@H](Cc1c[nH]cn1)NS(=O)(=O)c1ccc(C)cc1 [5 (49), (4-MePh)SO2 --D--His--Tyr(OBn)--CONHCH2 CH2 CH2 --(2-MeO--Ph)]	2.9 µM
O=C(NCc1ccccc1)N[C@H](Cc1c[nH]cn1)C(=O)N[C@@H](Cc1ccc(OCc2ccccc2)cc1)C(=O)NOCc1ccccc1 [5 (52), BnNHCO--D--His--Tyr(OBn)CONHOBn]	1.6 µM
O=C(Nc1cccc2ccccc12)N[C@H](Cc1c[nH]cn1)C(=O)N[C@@H](Cc1ccc(OCc2ccccc2)cc1)C(=O)NCCOCc1ccccc1 [5 (56), 1-napthyl-NHCO--D--His--Tyr(OBn)CONHCH2 CH2 OBn]	1.1 µM

Compound	IC50
O=C(Nc1cccc2ccccc12)N[C@H](Cc1c[nH]cn1)C(=O)N[C@@H](Cc1ccc(OCc2ccccc2)cc1)C(=O)NCCCCc1ccccc1 [5 (59), 1-napthyl-NHCO--D--His--Tyr(OBn)CONHCH2 CH2 CH2 CH2 Ph]	20 µM
O=C(Nc1cccc2ccccc12)N[C@H](Cc1c[nH]cn1)C(=O)N[C@@H](Cc1ccc(OCc2ccccc2)cc1)C(=O)NCc1ccccc1 [5 (60), 1-napthyl-NHCO--D--His--Tyr(OBn)CONHCH2 Ph]	1.4 µM
CCOc1ccc(NC(=O)N[C@H](Cc2c[nH]cn2)C(=O)N[C@@H](Cc2ccc(OCc3ccccc3)cc2)C(=O)NCCOCc2ccccc2)cc1 [5 (61), (4-EtOPh)NHCO--D--His--Tyr(OBn)CONHCH2 CH2 OBn]	7.2 µM
O=C(NC(Cc1cnc[nH]1)C(=O)NC(Cc1ccc(OCc2ccccc2)cc1)C(=O)NCCSCc1ccccc1)OCc1ccccc1 [5 (62), BnOCO--D--His--Tyr(OBn)CONHCH2 CH2 SBn]	1.5 µM
CCOc1ccc(NC(=O)NC(Cc2cnc[nH]2)C(=O)NC(Cc2ccc(OCc3ccccc3)cc2)C(=O)NCCCOc2ccccc2)cc1 (centres unmarked) [5 (63), (4-EtOPh)NHCO--His--Tyr(OBn)CONHCH2 CH2 CH2 OPh]	1 µM
O=C(NC(Cc1c[nH]cn1)C(=O)NC(Cc1ccc(OCc2ccccc2)cc1)C(=O)NCCCCc1ccccc1)OCc1ccccc1 [5 (64), BnOCO--D--His--Tyr(OBn)CONHCH2 CH2 CH2 CH2 Ph]	1.7 µM
COc1ccccc1CCCNC(=O)C(Cc1ccc(OCc2ccccc2)cc1)NC(=O)C(Cc1c[nH]cn1)NC(=O)Cc1ccccc1 [5 (69), PhCH2 CO--D--His--Tyr(OBn)CONH(CH2)3 --(2-MeO--Ph)]	0.48 µM
CC(C)NC(=O)N[C@H](Cc1c[nH]cn1)C(=O)N[C@@H](Cc1ccc(OCc2ccccc2)cc1)C(=O)NCCCCc1ccccc1 [5 (79), (CH3)2 CHNHCO--D--His--Tyr(OBn)CONHCH2 CH2 CH2 CH2 Ph]	3 µM
O=C(CCc1ccccc1)NC(Cc1c[nH]cn1)C(=O)NC(Cc1ccc(OCc2ccccc2)cc1)C(=O)NCc1ccccc1 [5 (80), PhCH2 CH2 CO--D--His--Tyr(OBn)CONHCH2 Ph]	1.6 µM
NC(=O)[C@H](COCc1ccccc1)NC(=O)[C@H](Cc1ccc(OCc2ccccc2)cc1)NC(=O)[C@H](Cc1c[nH]cn1)NC(=O)OCc1ccccc1 [Example 1, Nα -[N-[N-[(Phenylmethoxy)carbonyl]-L-histidyl]-O-(phenylmethyl)-L-tyrosyl]-O-(phenylmethyl)-L-serinamide] (Cbz-His-Tyr(Bn)-Ser(Bn)-NH2)	4.4 µM
O=C(NCc1ccccc1)N[C@@H](Cc1c[nH]cn1)C(=O)N[C@@H](Cc1ccc(OCc2ccccc2)cc1)C(=O)NCCCOc1ccccc1 [Example 4]	1 µM
COC(=O)[C@H](COCc1ccccc1)NC(=O)[C@H](Cc1ccc(OCc2ccccc2)cc1)NC(=O)[C@H](Cc1c[nH]cn1)NC(=O)OCc1ccccc1 [Example 6, N-[N-[N-[(Phenylmethoxy)carbonyl]-L-histidyl]-O-(phenylmethyl)-L-tyrosyl]-O-(phenylmethyl)-L-serine, methyl ester] (Cbz-His-Tyr(Bn)-Ser(Bn)-OMe)	0.42 µM
O=C(N[C@@H](Cc1c[nH]cn1)C(=O)N[C@@H](Cc1ccc(OCc2ccccc2)cc1)C(=O)N[C@@H](COCc1ccccc1)C(=O)O)OCc1ccccc1 [Example 7, N-[N-[N-[(Phenylmethoxy)carbonyl]-L-histidyl]-O-(phenylmethyl)-L-tyrosyl]-O-(phenylmethyl)-L-serine] (Cbz-His-Tyr(Bn)-Ser(Bn)-OH)	0.26 µM
COC(=O)[C@H](COCc1ccccc1)NC(=O)[C@H](Cc1ccc(OCc2ccccc2)cc1)NC(=O)[C@@H](Cc1c[nH]cn1)NC(=O)OCc1ccccc1 [Example 8, N-[N-[N-[(Phenylmethoxy)carbonyl]-D-histidyl]-O-(phenylmethyl)-L-tyrosyl]-O-(phenylmethyl)-L-serine, methyl ester] (Cbz-[dH]-Tyr(Bn)-Ser(Bn)-OMe)	0.074 µM
COC(=O)[C@@H](COCc1ccccc1)NC(=O)[C@H](Cc1ccc(OCc2ccccc2)cc1)NC(=O)[C@H](Cc1c[nH]cn1)NC(=O)OCc1ccccc1 [Example 9, N-[N-[N-[(Phenylmethoxy)carbonyl]-L-histidyl]-O-(phenylmethyl)-L-tyrosyl]-O-(phenylmethyl)-D-serine, methyl ester] (Cbz-His-Tyr(Bn)-[dS](Bn)-OMe)	0.27 µM
CCNC(=O)[C@H](COCc1ccccc1)NC(=O)[C@H](Cc1ccc(OCc2ccccc2)cc1)NC(=O)[C@H](Cc1c[nH]cn1)NC(=O)OCc1ccccc1 [Example 11, N-Ethyl-Nα -[N-[N-[(phenylmethoxy)carbonyl]-L-histidyl]-O-(phenylmethyl)-L-tyrosyl]-O-(phenylmethyl)-L-serinamide] (Cbz-His-Tyr(Bn)-Ser(Bn)-NHEt)	0.17 µM

Source: patent US5830868A, “Substituted DI- and tripeptide inhibitors of protein: farnesyl transferase” (Warner-Lambert Company, priority 1996, dated 1998)
